Patent US8192962B2, “Processes for detecting toxic substances” (Daikin Industries, Ltd., priority 2001, dated 2012)

System: Metabolism protein genes
Experiment: DNA chip mRNA expression in yeast, metabolism protein genes (Table 7)
Assay type: cell-based, Saccharomyces cerevisiae S288C
Summary of the method: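 Measured as treated-to-untreated fluorescence ratio on a full-genome yeast DNA chip. Cells (S288C, YPD, 25° C.) were exposed in log phase for two hours to one chemical, dosed to curb growth without killing.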

SMILES: N#Cc1c(Cl)c(Cl)c(Cl)c(C#N)c1Cl [(9), 2,4,5,6-tetrachloro-1,3-benzenedicarbonitrile]
- The level of expressed mRNA in the presence of chemical substance/The level of expressed mRNA in the absence of chemical substance (yeast gene YAL012W): 4.7
- The level of expressed mRNA in the presence of chemical substance/The level of expressed mRNA in the absence of chemical substance (yeast gene YAL038W): 0.1
- The level of expressed mRNA in the presence of chemical substance/The level of expressed mRNA in the absence of chemical substance (yeast gene YAL044C): 0.4
- The level of expressed mRNA in the presence of chemical substance/The level of expressed mRNA in the absence of chemical substance (yeast gene YAL054C): 8.9
- The level of expressed mRNA in the presence of chemical substance/The level of expressed mRNA in the absence of chemical substance (yeast gene YAR071W): 0.3
- The level of expressed mRNA in the presence of chemical substance/The level of expressed mRNA in the absence of chemical substance (yeast gene YBL001C): 1.5
- The level of expressed mRNA in the presence of chemical substance/The level of expressed mRNA in the absence of chemical substance (yeast gene YBL033C): 6.6
- The level of expressed mRNA in the presence of chemical substance/The level of expressed mRNA in the absence of chemical substance (yeast gene YBL086C): 3.3
- level of expressed mRNA in the presence/in the absence of chemical substance (yeast gene YBR003W): 1.0
- level of expressed mRNA in the presence/in the absence of chemical substance (yeast gene YBR011C): 2.2
- The level of expressed mRNA in the presence of chemical substance/The level of expressed mRNA in the absence of chemical substance (yeast gene YBR014C): 1.3
- The level of expressed mRNA in the presence of chemical substance/The level of expressed mRNA in the absence of chemical substance (yeast gene YBR023C): 0.3
- The level of expressed mRNA in the presence of chemical substance/The level of expressed mRNA in the absence of chemical substance (yeast gene YBR029C): 2.0
- The level of expressed mRNA in the presence of chemical substance/The level of expressed mRNA in the absence of chemical substance (yeast gene YBR035C): 2.2
- The level of expressed mRNA in the presence of chemical substance/The level of expressed mRNA in the absence of chemical substance (yeast gene YBR068C): 0.8
- The level of expressed mRNA in the presence of chemical substance/The level of expressed mRNA in the absence of chemical substance (yeast gene YBR183W): 0.4
- The level of expressed mRNA in the presence of chemical substance/The level of expressed mRNA in the absence of chemical substance (yeast gene YBR222C): 0.7
- The level of expressed mRNA in the presence of chemical substance/The level of expressed mRNA in the absence of chemical substance (yeast gene YBR256C): 18.1
- The level of expressed mRNA in the presence of chemical substance/The level of expressed mRNA in the absence of chemical substance (yeast gene YBR296C): 0.4
- The level of expressed mRNA in the presence of chemical substance/The level of expressed mRNA in the absence of chemical substance (yeast gene YCL009C): 0.9
- The level of expressed mRNA in the presence of chemical substance/The level of expressed mRNA in the absence of chemical substance (yeast gene YCL064C): 1.7
- level of expressed mRNA in the presence/in the absence of chemical substance (yeast gene YCR010C): 0.9
- level of expressed mRNA in the presence/in the absence of chemical substance (yeast gene YCR034W): 0.1
- The level of expressed mRNA in the presence of chemical substance/The level of expressed mRNA in the absence of chemical substance (yeast gene YCR036W): 2.6
- The level of expressed mRNA in the presence of chemical substance/The level of expressed mRNA in the absence of chemical substance (yeast gene YCR048W): 0.8
- The level of expressed mRNA in the presence of chemical substance/The level of expressed mRNA in the absence of chemical substance (yeast gene YCR098C): 1.4
- The level of expressed mRNA in the presence of chemical substance/The level of expressed mRNA in the absence of chemical substance (yeast gene YDL124W): 3.3
- The level of expressed mRNA in the presence of chemical substance/The level of expressed mRNA in the absence of chemical substance (yeast gene YDR009W): 1.3
- The level of expressed mRNA in the presence of chemical substance/The level of expressed mRNA in the absence of chemical substance (yeast gene YDR019C): 0.4
- level of expressed mRNA in the presence/in the absence of chemical substance (yeast gene YDR050C): 0.4
- level of expressed mRNA in the presence/in the absence of chemical substance (yeast gene YDR123C): 0.5
- level of expressed mRNA in the presence/in the absence of chemical substance (yeast gene YDR178W): 0.9
- level of expressed mRNA in the presence/in the absence of chemical substance (yeast gene YDR277C): 0.2
- level of expressed mRNA in the presence/in the absence of chemical substance (yeast gene YDR284C): 0.9
- level of expressed mRNA in the presence/in the absence of chemical substance (yeast gene YDR345C): 0.2
- The level of expressed mRNA in the presence of chemical substance/The level of expressed mRNA in the absence of chemical substance (yeast gene YDR380W): 0.2
- level of expressed mRNA in the presence/in the absence of chemical substance (yeast gene YDR400W): 1.1
- level of expressed mRNA in the presence/in the absence of chemical substance (yeast gene YDR408C): 0.3
- level of expressed mRNA in the presence/in the absence of chemical substance (yeast gene YDR483W): 0.4
- The level of expressed mRNA in the presence of chemical substance/The level of expressed mRNA in the absence of chemical substance (yeast gene YDR487C): 2.7
- The level of expressed mRNA in the presence of chemical substance/The level of expressed mRNA in the absence of chemical substance (yeast gene YDR497C): 0.4
- The level of expressed mRNA in the presence of chemical substance/The level of expressed mRNA in the absence of chemical substance (yeast gene YDR502C): 1.6
- The level of expressed mRNA in the presence of chemical substance/The level of expressed mRNA in the absence of chemical substance (yeast gene YDR516C): 1.8
- level of expressed mRNA in the presence/in the absence of chemical substance (yeast gene YEL063C): 0.8
- The level of expressed mRNA in the presence of chemical substance/The level of expressed mRNA in the absence of chemical substance (yeast gene YER026C): 0.9
- The level of expressed mRNA in the presence of chemical substance/The level of expressed mRNA in the absence of chemical substance (yeast gene YER053C): 1.3
- The level of expressed mRNA in the presence of chemical substance/The level of expressed mRNA in the absence of chemical substance (yeast gene YER069W): 0.8
- level of expressed mRNA in the presence/in the absence of chemical substance (yeast gene YER081W): 1.8
- The level of expressed mRNA in the presence of chemical substance/The level of expressed mRNA in the absence of chemical substance (yeast gene YER096W): 7.5
- level of expressed mRNA in the presence/in the absence of chemical substance (yeast gene YER120W): 0.8
